The source of these data is PMC10726440, “N-Biphenyl Pyrrolinones and Dibenzofurans as RNA-Binding Protein LIN28 Inhibitors Disrupting the LIN28–Let-7 Interaction” (ACS Medicinal Chemistry Letters, 2023).

Assay [1] has as its target T1, LIN28A (16-126) CSD protein (Homo sapiens, UniProt Q9H9Z2).
T1 construct: incubated with LIN28A (16-126) CSD protein; pET19a or pMAL vector) (cleaved yes); made in house; host or cells: Escherichia coli BL21(DE3)
T1 sequence (Q9H9Z2 16-126): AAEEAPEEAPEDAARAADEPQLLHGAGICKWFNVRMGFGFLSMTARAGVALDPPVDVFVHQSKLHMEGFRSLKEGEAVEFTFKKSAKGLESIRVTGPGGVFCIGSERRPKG
Put plainly: Nano differential scanning fluorimetry (nanoDSF) thermal shift. It counts as binding. The following applies: compound at 75 μM. The method, then:
(§1) Nano differential scanning fluorimetry (nanoDSF)
Compounds (final concentration 75 µM) were incubated with LIN28A (16-126) CSD protein
for 45 minutes at room temperature in a buffer containing 30 mM NaH2PO4, 50 mM NaCl and
1 mM MgCl2 at pH 8.0. Thermal protein stability was determined using NanoTemper
Prometheus NT.48 with a temperature ramp from 20 °C to 90 °C increasing the temperature by
1 °C per minute. Melting temperatures were determined using the software of the device. […]
(§2) Master Mix II, with UNG (A pplied Biosystems) and a CFX Connect Real -Time PCR System

The target in assay [2] is T2, LIN28A(16–187)–let-7 interaction (Homo sapiens, UniProt Q9H9Z2).
T2 construct: LIN28A(16–187) or LIN28B(24–111); pET19a or pMAL vector) (cleaved yes); made in house; host or cells: Escherichia coli BL21(DE3)
T2 sequence (Q9H9Z2 16-187): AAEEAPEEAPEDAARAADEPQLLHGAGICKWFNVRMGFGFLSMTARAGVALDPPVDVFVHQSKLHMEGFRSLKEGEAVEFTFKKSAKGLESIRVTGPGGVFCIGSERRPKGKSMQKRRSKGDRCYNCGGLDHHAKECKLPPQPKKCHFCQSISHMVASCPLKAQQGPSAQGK
Put plainly: Electrophoretic mobility shift assay (EMSA), disruption of LIN28–let-7 complex. The format is binding. Particulars: for IC50: concentration-dependent EMSA, some values estimated, read-out: IC50 in dose–response EMSA; for inhibition at 75 µM: single concentration of 75 μM, read-out: inhibition of the LIN28–let-7 interaction measured in EMSA. The method, then:
(§3) Inhibition of the LIN28–let-7 complex was evaluated by electrophoretic mobility shift assays. Mixtures containing compound at indicated concentrations, LIN28A(16–187) or LIN28B(24–111), and recombinant ribonuclease inhibitor (TaKaRa Bio) were incubated at room temperature for 2 h. The reaction buffer contained 50 mM TRIS, pH 7.5, 100 mM NaCl, 10 mM β-mercaptoethanol, 50 μM ZnCl2, 2% DMSO, 0.01% Tween-20 and 12% glycerol. Cy-3-fluorophore labeled RNA, (pre-E let-7f-1-Cy3, Mus musculus, […]-Cy3, purchased from IDT) was added to the reaction and incubated for further 15 min. The final concentrations were as follows: 10 nM LIN28A or 200 nM LIN28B, 5 nM RNA. Of each mixture, 10 μL was analyzed on a nondenaturing PAGE (5.3% acrylamide TAE PAGE for full-length LIN28 and 10% acrylamide TAE PAGE for analysis of the CSD) prerun for 1 h without sample and run for 1 h at 220 V at 4 °C in 0.25× TAE buffer. Gels were imaged using a ChemiDoc MP instrument (Bio-Rad Laboratories). Band intensities were analyzed using ImageJ and inhibition was quantified by calculation of the ratio of free RNA fluorescence to the fluorescence of the protein–RNA complex, and normalization to free RNA and LIN28–let-7 complex controls. The intensity ratio was analyzed by nonlinear regression fit in GraphPad Prism to determine the IC50 values.

The target of another assay is T3, LIN28A CSD (Homo sapiens, UniProt Q9H9Z2).
T3 construct: residues 16–126 of the LIN28A cold shock domain; pET19a or pMAL vector) (cleaved yes); made in house; host or cells: Escherichia coli BL21(DE3)
T3 sequence (Q9H9Z2 16-126): T1 sequence (Q9H9Z2 16-126)
Put plainly: Biolayer interferometry (BLI). The format is binding. How it is done:
(§4) Biolayer Interferometry (BLI)
Recombinant LIN28A CSD was biotinylated with EZ-Link Sulfo NHS-LC-LC-Biotin (Thermo Fisher Scientific) following the manufacturer's guidelines with a labeling ratio of one biotin per protein. Free biotin reagent was removed during dialysis against buffer (20 mM HEPES pH 7.5, 150 mM NaCl, 1 mM MgCl2). After loading optimization, the protein was immobilized on SA biosensors (Sartorius). The association and dissociation of compounds were recorded in a buffer containing 20 mM HEPES pH 7.5, 150 mM NaCl, 1 mM MgCl2, 0.05 % Tween 20, 1 % DMSO and 0.3 mg/mL BSA. Data was measured and analyzed using an Octet Red384 instrument (Sartorius). Double referencing against samples without compound and sensors loaded with 10 µg/mL biocytin instead of protein was performed. […]
as §2
In general terms: Biolayer interferometry detects binding as a change in optical thickness at a sensor tip.

A further assay deals with T4, LIN28B–let-7 interaction (Homo sapiens, UniProt Q6ZN17).
T4 construct: residues 24–111 of the LIN28B cold shock domain; pET19a or pMAL vector) (cleaved yes); made in house; host or cells: Escherichia coli BL21(DE3)
T4 sequence (Q6ZN17 24-111): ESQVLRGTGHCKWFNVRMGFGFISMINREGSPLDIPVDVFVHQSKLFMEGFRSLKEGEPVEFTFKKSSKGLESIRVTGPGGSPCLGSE
Put plainly: EMSA with LIN28B. It counts as binding. The following applies: Figure S3. How it is done:
as §3
On the technique in general: Mobility shift assays separate free from complexed probe on a gel.

Assay [3] has as its system mature let-7d and let-7i levels in JAR cells. As to the kind of experiment: qPCR of mature let-7 miRNA levels in JAR cells. It counts as cell-based. The following applies: 24 h. The method, then:
as §1
Compounds (final concentration 75 µM) were incubated with LIN28A (16-126) CSD protein for 45 minutes at room temperature in a buffer containing 30 mM NaH2PO4, 50 mM NaCl and 1 mM MgCl2 at pH 8.0. Thermal protein stability was determined using NanoTemper Prometheus NT.48 with a temperature ramp from 20 °C to 90 °C increasing the temperature by 1 °C per minute. Melting temperatures were determined using the software of the device.
as §4
Recombinant LIN28A CSD was biotinylated with EZ-Link Sulfo NHS-LC-LC-Biotin (Thermo Fisher Scientific) following the manufacturer's guidelines with a labeling ratio of one biotin per protein. Free biotin reagent was removed during dialysis against buffer (20 mM HEPES pH 7.5, 150 mM NaCl, 1 mM MgCl2). […] The association and dissociation of compounds were recorded in a buffer containing 20 mM HEPES pH 7.5, 150 mM NaCl, 1 mM MgCl2, 0.05 % Tween 20, 1 % DMSO and 0.3 mg/mL BSA. Data was measured and analyzed using an Octet Red384 instrument (Sartorius). […]
For computational docking analysis of pyrrolinones 11S/R to the RNA binding site of LIN28A (PDB code: 5UDZ)1 Schrödinger® Maestro 12.3 was used. […] The glide dock module was used and the results were evaluated according to interactions between small molecules and LIN28A, small molecule orientations, docking scores and solvent exposure patterns. […]
Background: Real-time PCR tracks product formation cycle by cycle.

Each structure is given as a SMILES string. “And” between values parts separate entries of the source, which are not always exact repeats. Equal entries are not always repeated.

A word on the IC50: it is the midpoint of a concentration-inhibition curve. The inhibition is how much of the control response was suppressed. As for `Cn1nnc2cc(C3C(C(=O)c4ccccc4)=C(O)C(=O)N3c3ccc(O)c(C(=O)O)c3)ccc21` (stereo not drawn) [Compound 8], the “increase in thermal stability (melting temperature shift) of the LIN28 CSD” value in assay [1] was “less than 0.5 °C”. Also, in assay [2], the IC50 is > 75 µM and ~90 µM; the inhibition at 75 µM turned out to be 69.9%.
For `O=C(C1=C(O)C(=O)N(c2cccc(-c3ccccc3)c2)C1c1ccc([N+](=O)[O-])cc1)c1ccccc1` (stereo not drawn) [Compound 11], in assay [2], the IC50 was 27 µM and the inhibition at 75 µM was 95%. Further, the “direct binding to the LIN28 CSD in biolayer interferometry (in words)” value on LIN28A CSD was “concentration-dependent binding”. The “inhibition of the LIN28B–let-7 interaction in EMSA (in words)” value against LIN28B–let-7 interaction is listed as “concentration-dependent manner”. Also, the “effect on biogenesis of mature let-7i and let-7d miRNAs (in words)” value in assay [3] is “concentration-dependent manner”.
Turning to `O=C(C1=C(O)C(=O)N(c2cccc(-c3ccccc3)c2)[C@H]1c1ccc([N+](=O)[O-])cc1)c1ccccc1` [Compound 11S], the “increase in thermal stability (melting temperature shift) of the LIN28 CSD” value in assay [1] is ~1.9 °C. Further, the IC50 in assay [2] was 37 µM.
As to `O=C(C1=C(O)C(=O)N(c2cccc(-c3ccccc3)c2)[C@@H]1c1ccc([N+](=O)[O-])cc1)c1ccccc1` [Compound 11R], in assay [1], the “increase in thermal stability (melting temperature shift) of the LIN28 CSD” value was ~1.9 °C. In assay [2], the IC50 is 24 µM.
For the compound `O=C(C1=C(O)C(=O)N(c2ccc3c(c2)oc2ccccc23)C1c1ccc([N+](=O)[O-])cc1)c1ccccc1` (stereo not drawn) [Compound 45], the “inhibition of LIN28–let-7 complex formation in concentration-dependent EMSA (in words)” value in assay [2] (dose–response EMSA) was “best inhibitory activities among the evaluated molecules”. Further, in assay [2], the inhibition at 75 µM turned out to be 97%.
Consider `O=C(C1=C(O)C(=O)N(c2cccc(-c3ccccc3)c2)C1c1ccc([N+](=O)[O-])cc1)c1ccccc1F` (stereo not drawn) [Compound 33], for which the inhibition at 75 µM in assay [2] worked out at 98%.
